From PMC8397425, “A Strategy to Conjugate Bioactive Fragments to Cytotoxic Diiron Bis(cyclopentadienyl) Complexes” (Organometallics, 2021)
Values joined by “and” are separate entries in the source; they are usually repeats but may differ in a detail not shown here. Identical values can stand only once. Like-named read-outs stand apart in the source and are kept apart here.

Columns and labels:
[1] = system: cancer cell lines; conditions: cited from earlier work
[2] = system: Human Ovarian Carcinoma (A2780) cell line; experiment: MTT cytotoxicity, A2780; assay type: cell-based; conditions: 72 h exposure, MTT, mean ± SD
Description: (§1) Human ovarian carcinoma (A2780 and A2780cisR) cell lines were obtained from the European Collection of Cell Cultures. The Human Embryonic Kidney 293T (HEK 293T) cell line was obtained from the ATCC (Sigma, Buchs, Switzerland). Penicillin–streptomycin, RPMI 1640 GlutaMAX (where RPMI = Roswell Park Memorial Institute), and DMEM GlutaMAX media (where DMEM = Dulbecco’s modified Eagle medium) were obtained from Life Technologies, and fetal bovine serum (FBS) was obtained from Sigma. The cells were cultured in RPMI 1640 GlutaMAX (A2780 and A2780cisR) and DMEM GlutaMAX (HEK 293T) media containing 10% heat-inactivated FBS and 1% penicillin–streptomycin at 37 °C and CO2 (5%). The A2780cisR cell line was routinely treated with cisplatin (2 μM) in the media to maintain cisplatin resistance. The cytotoxicity was determined using the 3-(4,5-dimethyl-2-thiazolyl)-2,5-diphenyl-2H-tetrazolium bromide (MTT) assay.[42] Cells were seeded in flat-bottomed 96-well plates as a suspension in a prepared medium (100 μL aliquots and approximately 4300 cells/well) and preincubated for 24 h. Stock solutions of compounds were prepared in DMSO and were diluted in the medium. The solutions were sequentially diluted to give a final DMSO concentration of 0.5% and a final compound concentration range of 0–200 μM. Cisplatin was tested as a positive (0–100 μM) control. The compounds were placed in the preincubated 96-well plates in 100 μL aliquots, and the plates were incubated for a further 72 h. MTT (20 μL, 5 mg/mL in Dulbecco’s phosphate buffered saline) was placed in the cells, and the plates were incubated for a further 4 h. The culture medium was aspirated, and the purple formazan crystals, formed by the mitochondrial dehydrogenase activity of vital cells, were dissolved in DMSO (100 μL/well). The absorbance of the resulting solutions, directly proportional to the number of surviving cells, was quantified at 590 nm using a SpectroMax M5e multimode microplate reader (using SoftMax Pro software, version 6.2.2). The percentage of surviving cells was calculated from the absorbance of wells corresponding to the untreated control cells. The reported IC50 values are based on the means from two independent experiments, each comprising four tests per concentration level.

[3] = Octanol–water partition coefficient (shake-flask, UV–vis); assay type: physicochemical; conditions: T = 21 °C
Method: The solubility of the complexes in D2O was assessed using ^1H NMR spectroscopy (see Table 1 and the Experimental Section for details). […] Data from the literature for the related nonfunctionalized complexes [2′,3′]CF3SO3 are compiled in Table 1 for comparison.[11] The octanol–water partition coefficients (Log Pow) were measured using a UV–vis method and fall within the −0.2 to +1.2 range (Table 1). […] For instance, Log Pow values of 1.07 and 0.65 are obtained for the geometric isomers [9]CF3SO3 and [10]CF3SO3, respectively. […]
Determination of partition coefficients (Log P ow)
Partition coefficients ( Pow; IUPAC: K D partition constant, 7,8 defined as Pow = corg/caq, where corg and caq are the molar concentrations of the selected compound in the organic and aqueous phases, respectively, were determined by the shake-flask method and UV-Vis measurements. 9 Values of Log Pow for diiron complexes are compiled in Table 2. All the operations were carried out at 21±1 °C. De -ionised water and 1-octanol were mixed and vigorously stirred for 24 hours at room temperature to allow saturation of both phases, then separated by centrifugation and used for the following experiments. A solution of the selected Fe compound in the organic phase (V = 5 mL) was prepared and its UV-Vis spectrum was recorded. An aliquot of the solution (Vorg = 1.5 mL) was then transferred into a test tube and the aqueous phase (Vorg = Vaq = 1.5 mL) was added. The mixture was vigorously stirred for 20 minutes and the resulting emulsion was centrifuged (5000 rpm, 10’). […]
(§2) the organic phase was recorded. The procedure was repeated three times for each compound. The partition coefficient was then calculated as PPow = AorgA0,org − Aorg, where A0,org and Aorg are the absorbance values in the organic phase, respectively before and after mixing with the aqueous phase. 9 UV-Vis measurements were carried out using 1 cm PMMA cuvettes. The wavelength of the maximum absorption of each compound was used for UV-Vis quantification.

[4] = Stability in D2O/DMSO at 37 °C by 1H NMR; assay type: physicochemical; conditions: for stability (%), residual percent of complex / stability (%), residual percentage of the complex: D2O/DMSO 2/1 v/v; for stability (%), total percentage of diiron complexes with a chlorambucil-like group: D2O/DMSO 1/1 v/v
Method: Conversely, [3–7]CF3SO3, containing either {Aryl–OCOAsp} or {Aryl-NHCOAsp} moieties, were stable under the same conditions. […] Complete conversion into the bis-hydroxide [8^2OH]^+ was achieved within 72 h. Similarly, [9,10]CF3SO3 undergo activation of the {C–Cl} bonds to give mixtures of the partially Cl/OH substituted species [9^OH]^+ and [10^OH]^+ and the fully substituted species [9^2OH]^+ and [10^2OH]^+.

[5] = system: Human Embryonic Kidney 293T (HEK 293T) cell line; experiment: MTT cytotoxicity, HEK 293T; assay type: cell-based; conditions: 72 h exposure, mean ± SD
Description: as §1

[6] = system: Human Ovarian Carcinoma Cisplatin Resistant (A2780cisR) cell line; experiment: MTT cytotoxicity, A2780cisR; assay type: cell-based; conditions: 72 h exposure, mean ± SD
Description: as §1

[7] = target: T1, COX-2 enzyme (Homo sapiens, UniProt P35354); experiment: COX-2 enzyme inhibition assay (fluorimetric); assay type: biochemical; conditions: residual enzyme activity, 25 °C, pH 8, mean ± SD
T1 construct: purchased Cayman Chemical Company
T1 sequence (P35354 18-604): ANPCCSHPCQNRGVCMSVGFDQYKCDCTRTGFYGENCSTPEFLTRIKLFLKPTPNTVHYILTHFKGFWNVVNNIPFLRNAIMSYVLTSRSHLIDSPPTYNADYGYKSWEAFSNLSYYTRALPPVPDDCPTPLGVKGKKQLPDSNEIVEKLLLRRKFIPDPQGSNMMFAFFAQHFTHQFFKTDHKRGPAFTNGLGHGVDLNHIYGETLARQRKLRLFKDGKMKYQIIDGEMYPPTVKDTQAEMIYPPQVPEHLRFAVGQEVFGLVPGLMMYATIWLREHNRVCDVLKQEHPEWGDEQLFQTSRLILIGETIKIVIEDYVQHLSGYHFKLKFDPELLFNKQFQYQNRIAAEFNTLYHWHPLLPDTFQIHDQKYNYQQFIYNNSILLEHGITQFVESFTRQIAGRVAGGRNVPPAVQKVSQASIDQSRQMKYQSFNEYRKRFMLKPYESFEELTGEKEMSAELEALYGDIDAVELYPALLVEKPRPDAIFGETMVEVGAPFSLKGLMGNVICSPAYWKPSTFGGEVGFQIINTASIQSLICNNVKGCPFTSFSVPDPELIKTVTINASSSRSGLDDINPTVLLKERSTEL
Method: Next, the possible role of the bioactive fragment in the complexes was studied.
The IC50 value was obtained using GraphPad Prism 7 software. All of the inhibitor assays were performed at least in triplicate.

[8] = Stability in cell culture medium at 37 °C by NMR; assay type: physicochemical; conditions: after 72 h
Method: Complexes [3]CF3SO3, [5]CF3SO3, and [8]CF3SO3 were selected for an evaluation of their stability in the culture medium. Compounds were dissolved in DMSO-d6, and these solutions were diluted with the cell culture medium and stored at 37 °C. According to NMR spectroscopy, progressive release of the bioactive fragment occurred over 72 h, affording [3′]^+ from [3]CF3SO3 and [5′]^+ from [5]CF3SO3 (Figures S41 and S42). […] Overall, these findings indicate that the diiron scaffold decorated with biofunctionalized vinyliminium ligands is robust in aqueous media, with a tendency to progressively release the bioactive moiety in the medium used in cytotoxicity studies.
[8]CF3SO3, after 24 h: [3']+ and chlorambucil species ([8OH]+ + [8 2OH]+) (ratio 5:2). From [8]CF3SO3, after 72 h:
[3']+ and chlorambucil species ([82OH]+) (ratio 7:2).
Determination of partition coefficients (Log P ow) […]
as §2, with “The procedure was repeated three times for each compound.” left out, “9 UV-Vis measurements were carried out using 1 cm PMMA cuvettes.” left out

[9] = Solubility in D2O by 1H NMR; assay type: physicochemical; conditions: Me2SO2 internal standard, T = 21 °C
Method: The solubility of the complexes in D2O was assessed using ^1H NMR spectroscopy (see Table 1 and the Experimental Section for details). […] Data from the literature for the related nonfunctionalized complexes [2′,3′]CF3SO3 are compiled in Table 1 for comparison.[11] The octanol–water partition coefficients (Log Pow) were measured using a UV–vis method and fall within the −0.2 to +1.2 range (Table 1). […] For instance, Log Pow values of 1.07 and 0.65 are obtained for the geometric isomers [9]CF3SO3 and [10]CF3SO3, respectively.

[10] = system: Human Ovarian Carcinoma Cisplatin Resistant (A2780cisR) cell line; conditions: 72 h exposure, cited from earlier work
[11] = system: Human Ovarian Carcinoma (A2780) cell line; conditions: 72 h exposure, cited from earlier work
[12] = system: Human Embryonic Kidney 293T (HEK 293T) cell line; conditions: 72 h exposure; cited from earlier work
[13] = deuterated aqueous medium, 37 °C

| Compound | IC50 [2] | Log Pow [3] | stability (%), residual percent of complex ([4]; 24 h at 37 °C) | IC50 [5] | IC50 [6] | IC50 [7] | solubility [9] | also measured |
| --- | --- | --- | --- | --- | --- | --- | --- | --- |
| C#CCOC(=O)c1ccccc1OC(C)=O [ALK^A1] | – | – | – | – | – | – | – | activity toward cancer cell lines [1]: absence of activity |
| [Fe2Cp2(CO)(μ-CO){μ-η^1:η^3-Cγ(3-C6H4NHC(=O)C6H4OC(=O)Me)CβHCαNMe2}]CF3SO3 [[5]CF3SO3] | 43 ± 6 µM | –0.10 ± 0.01 | 69% | 89.9 ± 0.3 µM | 45 ± 1 µM | 10 ± 2 µM | – | dissociation of the bioactive fragment [8]: complete dissociation |
| [Fe2Cp2(CO)(μ-CO){μ-η^1:η^3-Cγ(4-C6H4NHC(=O)(CH2)3C6H4N(CH2CH2Cl)2)CβHCαNMe2}]CF3SO3 [[10]CF3SO3] | 6.4 ± 1.4 µM | 0.65 and 0.65 ± 0.02 | – | 30 ± 1 µM | 15 ± 5 µM | – | <1 × 10^–4 mol L^–1 | stability (%), total percentage of diiron complexes with a chlorambucil-like group ([4]; 24 h at 37 °C): 93%; stability (%), total percentage of diiron complexes with a chlorambucil-like group ([4]; 72 h at 37 °C): 85% |
| [Fe2Cp2(CO)(μ-CO){μ-η^1:η^3-Cγ(3-C6H4OC(=O)(CH2)3C6H4N(CH2CH2Cl)2)CβHCαNMe2}]CF3SO3 [[8]CF3SO3] | 4.7 ± 0.4 µM | 1.2 ± 0.2 | – | 20 ± 9 µM | 23 ± 3 µM | – | <1 × 10^–4 mol L^–1 | stability (%), total percentage of diiron complexes with a chlorambucil-like group ([4]; 24 h at 37 °C): 84%; stability (%), total percentage of diiron complexes with a chlorambucil-like group ([4]; 72 h at 37 °C): 77%; stability of the linkage to the bioactive fragment (hydrolysis) [4, 13]: did not undergo hydrolysis; time to complete conversion into the bis-hydroxide (Cl/OH exchange) [4, 13]: ≤ 72 h |
| O=C(O)CCCc1ccc(N(CCCl)CCCl)cc1 [chlorambucil] | – | – | – | – | – | – | – | IC50 ([10]; ref 22b): 25 ± 4 µM; IC50 ([11]; ref 22b): 5.2 ± 1.6 µM |
| N.N.[Cl][Pt][Cl] [cisplatin, reference compound] | 0.6 ± 0.1 µM | – | – | 2.6 ± 0.4 µM | 7.9 ± 0.1 µM | – | – | – |
| [Fe2Cp2(CO)(μ-CO){μ-η^1:η^3-Cγ(4-C6H4NHC(=O)C6H4OC(=O)Me)CβHCαNMe2}]CF3SO3 [[7]CF3SO3] | 71 ± 14 µM | –0.19 ± 0.01 | 70% | > 100 µM | 87 ± 10 µM | 20 ± 2 µM | – | – |
| [Fe2Cp2(CO)(μ-CO){μ-η^1:η^3-Cγ(3-C6H4NHC(=O)C6H4OC(=O)Me)CβHCαNMe(Xyl)}]CF3SO3 [[6]CF3SO3] | 6.5 ± 0.8 µM | 0.80 ± 0.02 | 91% | 7.2 ± 0.9 µM | 7 ± 2 µM | 66 ± 2 µM | <1 × 10^–4 mol L^–1 | – |
| [Fe2Cp2(CO)2(μ-CO){μ-CNMe(R)}]CF3SO3 (R = Xyl = 2,6-C6H3Me2) [[1b]CF3SO3] | – | – | – | – | – | – | – | IC50 [11]: 9.3 ± 0.7 µM |
| [Fe2Cp2(CO)(μ-CO){μ-η^1:η^3-Cγ(3-C6H4OC(=O)C6H4OC(=O)Me)CβHCαNMe2}]CF3SO3 [[3]CF3SO3] | 24 ± 5 µM | 0.24 ± 0.01 | 81% | 42 ± 6 µM | 21 ± 5 µM | 71 ± 1 µM | – | stability (%), residual percentage of the complex ([4]; 72 h at 37 °C): 57% |
| [Fe2Cp2(CO)2(μ-CO){μ-CNMe(R)}]CF3SO3 (R = Me) [[1a]CF3SO3] | – | – | – | – | – | – | – | IC50 [11]: > 200 µM; IC50 A2780 [11]: not active |
| CC(=O)Oc1ccccc1C(=O)O [aspirin, acetylsalicylic acid] | – | – | – | – | – | – | – | IC50 [10]: > 200 µM; IC50 [11]: > 200 µM; IC50 [12]: > 200 µM |
| [Fe2Cp2(CO)(μ-CO){μ-η^1:η^3-Cγ(CH2OC(=O)C6H4OC(=O)Me)CβHCαNMe(Xyl)}]CF3SO3 [[2]CF3SO3] | 13 ± 2 µM | 0.40 ± 0.01 | 85% | 9.2 ± 0.5 µM | 14 ± 1 µM | 84 ± 2 µM | <1 × 10^–4 mol L^–1 | stability (%), residual percentage of the complex ([4]; 72 h at 37 °C): 69%; release of aspirin from the linkage ([4]; deuterated aqueous medium, 37 °C, 24 h): approximately 20% |
